From patent publication US20250250312A1, “BIFUNCTIONAL PEPTIDE WITH MU[…] VIRUS BINDING PROPERTIES” (priority 2022, published 2025)

Columns and labels:
[1] = biological target: receptor binding domain (RBD) of SARS-CoV-2 (2019-nCoV) (Severe acute respiratory syndrome coronavirus 2, UniProt P0DTC2); test: biochemical; conditions: Table 4, cysteines in reduced state, MST
[2] = biological target: receptor binding domain (RBD) of SARS-CoV-2 wildtype (2019-nCoV) (SARS-CoV-2), P0DTC2

## CC(C)C[C@H](NC(=O)[C@H](Cc1ccccc1)NC(=O)[C@@H](NC(=O)[C@H](CCCCN)NC(=O)[C@H](C)NC(=O)[C@H](CCC(N)=O)NC(=O)[C@H](CCC(=O)O)NC(=O)[C@@H](N)CCC(=O)O)[C@@H](C)O)C(=O)N[C@@H](CC(=O)O)C(=O)N[C@@H](CCCCN)C(=O)N[C@@H](Cc1ccccc1)C(=O)N[C@@H](CC(N)=O)C(=O)N[C@@H](Cc1c[nH]cn1)C(=O)N[C@@H](CCC(=O)O)C(=O)N[C@@H](C)C(=O)N[C@@H](CCC(=O)O)C(=O)N[C@@H](CC(=O)O)C(=O)N[C@@H](CS)C(=O)N[C@@H](Cc1ccccc1)C(=O)N[C@@H](Cc1ccc(O)cc1)C(=O)N[C@@H](CCC(N)=O)C(=O)N[C@@H](CS)C(=O)N[C@@H](CO)C(=O)O [p4C18, 22]
[1]
  Kd: 0.218 µM

## EEQAKTFKDKFDHEAEDLFYQSSGLGKGDFR (modifications not checked) [p6(K)8(D)12]
[2]
  Kd: 5 µM
